Data from US20200017496A1 (priority 2017, published 2020).

Legend:
Format in all cases: cell-based
[1] = tested on: Proteus mirabilis (PMI) isolates; assay: microbe, parasite or virus in culture; conditions: alone
How it was run: (§1)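 Log-phase bacteria at a final 5·10^5 CFU/mL in cation-adjusted Mueller-Hinton broth were incubated 16-20 h at 35° C in ambient air with compound alone or with an antibacterial. MIC was the lowest concentration preventing visible growth; combination MIC of the antibacterial was read at each compound concentration.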

[2] = tested on: Klebsiella pneumoniae (KPN) isolates; assay: MIC of compounds alone and combined with antibacterials, broth microdilution (CLSI); conditions: alone
How it was run: as §1

[3] = tested on: Citrobacter freundii (CFR) isolates; assay: as above
How it was run: as §1

[4] = tested on: Enterobacter aerogenes (EAE) isolates; assay: as above; conditions: alone
How it was run: as §1

## NC(=O)[C@@H]1CC[C@@H]2CN1C(=O)N2OC(F)(F)C(=O)[O-].[Na+] [EA1]
[1]; PMI UFR82
  MIC: >32 µg/mL
[1]; PMI UFR120
  MIC: >32 µg/mL
[1]; PMI UFR121
  MIC: >32 µg/mL
[1]; PMI UFR122
  MIC: >32 µg/mL
[1]; PMI UFR123
  MIC: >32 µg/mL
[1]; PMI UFR124
  MIC: >32 µg/mL
[1]; PMI UFR125
  MIC: >32 µg/mL
[1]; PMI UFR126
  MIC: >32 µg/mL
[1]; PMI UFR127
  MIC: >32 µg/mL
[1]; PMI UFR129
  MIC: >32 µg/mL
[1]; PMI UFR130
  MIC: >32 µg/mL
[1]; PMI UFR237
  MIC: >32 µg/mL
[2]; KPN 6299
  MIC: >32 µg/mL
[2]; KPN 110376
  MIC: >32 µg/mL
[2]; KPN 131119
  MIC: >32 µg/mL
[2]; KPN 140513
  MIC: >32 µg/mL
[2]; KPN 160143
  MIC: >32 µg/mL
[2]; KPN 190128
  MIC: >32 µg/mL
[2]; KPN 190270
  MIC: >32 µg/mL
[2]; KPN 190425
  MIC: >32 µg/mL
[2]; KPN 190551
  MIC: >32 µg/mL
[2]; KPN 200047
  MIC: >32 µg/mL
[2]; KPN 200327
  MIC: >32 µg/mL
[2]; KPN 260251
  MIC: >32 µg/mL
[2]; KPN 260252
  MIC: >32 µg/mL
[2]; KPN 260376
  MIC: >32 µg/mL
[2]; KPN 270077
  MIC: >32 µg/mL
[2]; KPN 700603
  MIC: >32 µg/mL
[2]; KPN ARA
  MIC: >32 µg/mL
[2]; KPN BAA-1898
  MIC: >32 µg/mL
[2]; KPN LIB
  MIC: >32 µg/mL
[2]; KPN UFR22_O
  MIC: >32 µg/mL
[2]; KPN UFR23
  MIC: >32 µg/mL
[2]; KPN UFR24
  MIC: >32 µg/mL
[2]; KPN UFR25
  MIC: >32 µg/mL
[2]; KPN UFR27
  MIC: >32 µg/mL
[2]; KPN UFR28
  MIC: >32 µg/mL
[2]; KPN UFR65
  MIC: >32 µg/mL
[2]; KPN UFR66
  MIC: >32 µg/mL
[2]; KPN UFR67
  MIC: >32 µg/mL
[2]; KPN UFR68
  MIC: >32 µg/mL
[2]; KPN UFR76
  MIC: >32 µg/mL
[2]; KPN UFR77
  MIC: >32 µg/mL
[2]; KPN UFR78
  MIC: >32 µg/mL
[2]; KPN UFR79
  MIC: >32 µg/mL
[2]; KPN UFR80
  MIC: >32 µg/mL
[2]; KPN UFR81
  MIC: >32 µg/mL
[2]; KPN UFR215
  MIC: >32 µg/mL
[2]; KPN UFR216
  MIC: >32 µg/mL
[2]; KPN UFR217
  MIC: >32 µg/mL
[2]; KPN UFR219
  MIC: >32 µg/mL
[2]; KPN UFR220
  MIC: >32 µg/mL
[2]; KPN UFR221
  MIC: >32 µg/mL
[2]; KPN UFR222
  MIC: >32 µg/mL
[2]; KPN UFR227O
  MIC: >32 µg/mL
[3]; CFR UFR10, alone
  MIC: >32 µg/mL
[3]; CFR UFR11, alone
  MIC: 16 µg/mL
[3]; CFR UFR83, alone
  MIC: >32 µg/mL
[3]; CFR UFR146, alone
  MIC: 64 µg/mL
[3]; CFR UFR248, alone
  MIC: >32 µg/mL
[3]; CFR UFR249, alone
  MIC: >32 µg/mL
[3]; CFR UFR250, alone
  MIC: >32 µg/mL
[3]; strain CFR UFR253, compound alone
  MIC: 32 µg/mL
[3]; strain CFR UFR254, compound alone
  MIC: 32 µg/mL
[4]; EAE 49469
  MIC: >32 µg/mL
[4]; EAE 200261
  MIC: >32 µg/mL
[4]; EAE UFR199
  MIC: 128 µg/mL
[4]; EAE UFR201
  MIC: >32 µg/mL
[4]; EAE UFR202
  MIC: >32 µg/mL
[4]; EAE UFR213
  MIC: >32 µg/mL
